Test results published in article PMC10308680 (Journal of Biomedical Science, 2023).
Where “and” joins values, the source holds several entries; their conditions need not be identical. Equal values may be shown once.

What was measured:
B7-2/CD28 = assay type: cell-based, human
[1] = tested on: CD28/B7-2 (cell-surface B7-2); assay type: cell-based, human

ASMDYPVL [p2TAsc]
Per cent doubly labeled cells (B7-2/CD28) (B7-2/CD28): 8.4% and 9.0% and 8.6%
attenuation of intercellular B7-2/CD28 engagement (in words) (B7-2/CD28): fails to attenuate intercellular B7-2/CD28 engagement
inhibition of binding of soluble CD28 to cell-surface B7-2 [1]: abrogated the ability of p2TA to inhibit binding of CD28 to cell-surface B7-2
